Laboratory results: PMC6100724, “Proteome‐wide analysis of phospho‐regulated PDZ domain interactions” (Molecular Systems Biology, 2018)
Each block holds one substance with its values, some of them ahead of it.

How the values were obtained:
DLG1 PDZ3 = test: Phosphomimetic ProP-PD selection with NGS; format: binding, human; settings: mean of selections 1-3; bait DLG1 PDZ3
Experimental: (§1) Phage selections were carried out for four rounds following a protocol by Huang and Sidhu (Huang & Sidhu, 2011) with minor modifications. Non‐specific binding phage was removed by pre‐selections against immobilized GST throughout the selection. The selections against the (pre‐)phosphorylated wild‐type library were performed in 50 mM HEPES (pH 7.4) and 150 mM NaCl (HBS) following the same procedure after pre‐phosphorylation of the library.
(§2) • Immobilize proteins (15 μg in 100 μl PBS) in a 96‐well MaxiSorp microtiter plate (NUNC) overnight at 4°C. • Start a 2YT culture of E. coli Omnimax supplemented with 100 μg/ml tetracycline to retain the F pilus epitope. • Block the wells with 200 μl 0.5% BSA in PBS for 2 h at 4°C. • Precipitate naïve phage library (10^11 cfu per selection) or amplified phage pool from the previous round of selection by adding one‐fifth the volume of PEG/NaCl. • Incubate on ice for 10 min, and pellet precipitated phage by centrifugation at 5,300 g for 15 min. Resuspend the phage pellet in 100 μl PBS per selection. • Add 100 μl of phage solution to the GST‐coated pre‐selection wells and incubate for 1 h. • Transfer the phage solution to the immobilized target proteins and allow it to bind for 2 h at 8°C. • Wash the plate four times with 200 μl cold wash buffer (PBS, 0.05% Tween‐20). • Elute bound phage by incubation with 100 μl log phase (0.6–0.8 OD600) E. coli Omnimax for 30 min at 37°C with shaking (200 RPM). • Add 10^12 cfu/ml M13K07 helper phage for hyperinfection of the bacteria and incubate as above for 45 min. • Transfer the bacterial culture to 10 ml 2YT supplemented with 50 μg/ml carbenicillin, 25 μg/ml kanamycin, and 300 μM IPTG and incubate overnight at 37°C while shaking. • Perform phage pool ELISA to monitor the progress of the selection as described previously (Huang & Sidhu, 2011).
(§3) The naïve library and the enriched phage pools of the third day of selection were amplified and barcoded by PCR and analyzed by NGS as described elsewhere (McLaughlin & Sidhu, 2013; Ivarsson et al, 2014). The reads were demultiplexed using the barcode sequences and filtered by discarding sequences with a Phred quality score under 30. Sequences were mapped to the original library using Bowtie (Langmead et al, 2009) with two mismatches between reads and library sequence. Nucleotide mutations leading to amino acid substitutions were subsequently removed. Cutoff values of NGS counts were assigned for each pool. PWMs were generated based on the remaining peptides (aligned on the C‐termini) using WebLogo (Crooks et al, 2004).
(§4) However, there was no significant correlation of the actual read counts (selection “strength”) and the initial representation in the library, reflecting the strong selection during phage display (wt+mimetic: P‐value: 0.49, ρ = −0.08, mimetic only: P‐value: 0.069, ρ = −0.2, wt only: P‐value: 0.12, ρ = 0.17). Consequently, the amount of reads for each binder after phage display is not a function of the amount of input reads in the naïve library and no modeling based on the input library frequencies to score the interactions is necessary. To allow for comparison between replicate selections, we used the fraction of NGS reads within a certain set, instead of the absolute number of NGS reads, as the absolute numbers differ between different NGS batches.

Scribble PDZ1 [1] = molecular target: T1, Scribble PDZ1 (Homo sapiens, UniProt Q14160); test: Phosphomimetic ProP-PD selection with NGS; format: binding; settings: bait Scribble PDZ1; mean of selections 1-3
T1 construct: human Scribble PDZ1 aa 719–829 in; made in house; host or cells: E. coli BL21 Gold (DE3)
Experimental: as §1, §2, §3, §4

DLG1 PDZ2 = molecular target: T2, DLG1 PDZ2 (Homo sapiens, UniProt Q12959); test: Phosphomimetic ProP-PD selection with NGS; format: binding; settings: mean of selections 1-3, bait DLG1 PDZ2
T2 construct: human DLG1 PDZ2 aa 311–407 in a modified pRSET vector 40; made in house; host or cells: E. coli BL21 Gold (DE3)
Experimental: as §1, §2, §3, §4

Scribble PDZ2 = test: Phosphomimetic ProP-PD selection with NGS; format: binding, human; settings: bait Scribble PDZ2
Experimental: as §1, §2, §3, §4

Scribble PDZ3 = test: Phosphomimetic ProP-PD selection with NGS; format: binding, human; settings: mean over selections 1-3; bait Scribble PDZ3
Experimental: as §1, §2, §3, §4

DLG1 PDZ1 = test: Phosphomimetic ProP-PD selection with NGS; format: binding, human; settings: mean of selections 1-3, bait DLG1 PDZ1; for Mean fraction #NGS counts mimetic peptide / total count selection: phosphomimetic peptide; for Mean fraction #NGS counts wt peptide / total counts selection: wild type peptide
Experimental: as §1, §2, §3, §4

Scribble PDZ1 [2] = molecular target: T1, Scribble PDZ1; test: Pre-phosphorylation ProP-PD: wild-type library treated with RPS6KA1 or not, selection with NGS; format: binding; settings: for Phosphorylated selection Mean fraction: Pre-phosphorylation with RPS6KA1; for Phosphorylated selection Mean fraction / Unphosphorylated selection Mean fraction: mean of the two selections, bait Scribble PDZ1; for Unphosphorylated selection Mean fraction: Without Kinase
Experimental: For pre‐phosphorylation of the wild‐type ProP‐PD library, we obtained activated RPS6KA1 (Thermo Fisher). The time and amount of kinase required to phosphorylate the ProP‐PD library were tested in a phosphorylation assay.
as §1, §2
• Precipitate the naive wild‐type phage library (as described above, 1.8 × 10^10 cfu phage per selection). • Resuspend the precipitated phage pellets in 100 μl Kinase buffer per selection and add ATP (100 μM final concentration) and RPS6KA1 (500 ng/ml) to the phage solution. In parallel, prepare a negative control where only ATP is added to the phage pool. • Incubate the phosphorylation reaction for 2 h at room temperature. Stop the reaction through PEG/NaCl precipitation (as described above). • Resuspend the phage pool in 100 μl HBS.
During the 4 days of pre‐phosphorylation ProP‐PD selections, the input phage library of each day of selection was subjected to phosphorylation prior to phage selection.
as §3

[3] = mean of selections 1 and 2 (selection 3 empty)

T2 sequence (Q12959 311-407): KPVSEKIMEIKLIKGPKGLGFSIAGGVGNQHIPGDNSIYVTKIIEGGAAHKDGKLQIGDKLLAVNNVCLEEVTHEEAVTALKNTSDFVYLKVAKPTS
T1 sequence (Q14160 719-829): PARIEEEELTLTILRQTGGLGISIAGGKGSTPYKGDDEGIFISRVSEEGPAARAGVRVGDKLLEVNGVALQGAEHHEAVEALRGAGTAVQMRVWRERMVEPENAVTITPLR

Mean fraction #NGS counts mimetic peptide / total count selection (Scribble PDZ1 [1]): 0.0009157
Mean fraction #NGS counts mimetic peptide / total count selection (DLG1 PDZ2; phosphomimetic peptide): 0.0001273
Substance: KREFIESNV
Mean fraction #NGS counts mimetic peptide / total count selection (Scribble PDZ2; [3]): 0.003418
Mean fraction #NGS counts mimetic peptide / total count selection (Scribble PDZ3): 0.005112
Mean fraction #NGS counts mimetic peptide / total count selection (DLG1 PDZ1): 2.37e-6

Mean fraction #NGS counts wt peptide / total counts selection (DLG1 PDZ2): 0.001671
Substance: RQTSYQGVL
Mean fraction #NGS counts wt peptide / total counts selection (DLG1 PDZ3): 0.008629

Mean fraction #NGS counts wt peptide / total counts selection (DLG1 PDZ2; wild type peptide): 4.36e-5
Substance: TIKLKTSFF
Mean fraction #NGS counts wt peptide / total counts selection (Scribble PDZ3): 4.802e-5
Mean fraction #NGS counts wt peptide / total counts selection (DLG1 PDZ3): 3.092e-5
Mean fraction #NGS counts wt peptide / total counts selection (DLG1 PDZ1): 0

Mean fraction #NGS counts mimetic peptide / total count selection (DLG1 PDZ2): 0.0001104
Substance: GGKRKEELV
Mean fraction #NGS counts mimetic peptide / total count selection (Scribble PDZ3): 0
Mean fraction #NGS counts mimetic peptide / total count selection (DLG1 PDZ3): 0
Mean fraction #NGS counts mimetic peptide / total count selection (DLG1 PDZ1): 3.0718e-6

Phosphorylated selection Mean fraction (Scribble PDZ1 [2]): 6.993e-6
Unphosphorylated selection Mean fraction (Scribble PDZ1 [2]): 4.139e-6
Substance: LPHSPHSHL [AAAS]

Phosphorylated selection Mean fraction (Scribble PDZ1 [2]): 0.0003108
Unphosphorylated selection Mean fraction (Scribble PDZ1 [2]): 1.381e-5
Substance: PLHSLETSL [ATP2B1]

Phosphorylated selection Mean fraction (Scribble PDZ1 [2]): 0.5527
Unphosphorylated selection Mean fraction (Scribble PDZ1 [2]): 0.1808
Substance: TMFLRETSL [GUCY1A2]

Phosphorylated selection Mean fraction (Scribble PDZ1 [2]): 2.797e-5
Unphosphorylated selection Mean fraction (Scribble PDZ1 [2]): 9.668e-6
Substance: TALKVMTMV [DACT2]

Phosphorylated selection Mean fraction (Scribble PDZ1 [2]): 1.399e-5
Unphosphorylated selection Mean fraction (Scribble PDZ1 [2]): 1.381e-5
Substance: KSEPFLTWL [WWTR1]

Mean fraction #NGS counts wt peptide / total counts selection (DLG1 PDZ2): 0.0005284
Substance: YPGSPDSWV
Mean fraction #NGS counts wt peptide / total counts selection (Scribble PDZ2; [3]): 0.2284
Mean fraction #NGS counts wt peptide / total counts selection (DLG1 PDZ1): 3.476e-5

More lines, now with the values behind:

Substance: KGRAKGTPV
Mean fraction #NGS counts wt peptide / total counts selection (DLG1 PDZ3): 0.0008774

Substance: TMFLRETSL‐coo‐
proportion of NGS counts, pre‐phosphorylated library relative to unphosphorylated library (fold) (Scribble PDZ1 [2]; phage-displayed peptide, library treated with RPS6KA1, selection against Scribble PDZ1, n = 2): 3 ×

Substance: SARLWETSI [ADAM22]
Phosphorylated selection Mean fraction (Scribble PDZ1 [2]): 0.05157
Unphosphorylated selection Mean fraction (Scribble PDZ1 [2]): 0.03077

Substance: VWLRKETRV [CYSLTR2]
Phosphorylated selection Mean fraction (Scribble PDZ1 [2]): 7.3245e-6
Unphosphorylated selection Mean fraction (Scribble PDZ1 [2]): 0

Substance: RPYRREEEI
Mean fraction #NGS counts mimetic peptide / total count selection (Scribble PDZ3): 0
Mean fraction #NGS counts mimetic peptide / total count selection (DLG1 PDZ3): 0

Substance: RQTEYQGVL
Mean fraction #NGS counts mimetic peptide / total count selection (DLG1 PDZ2): 0
Mean fraction #NGS counts mimetic peptide / total count selection (DLG1 PDZ3): 3.59e-6

Substance: KGRAKGEPV
Mean fraction #NGS counts mimetic peptide / total count selection (DLG1 PDZ3): 0

Substance: YEPSMEMSV
Mean fraction #NGS counts mimetic peptide / total count selection (DLG1 PDZ3): 0.001067

Substance: TMFLRETEL
Mean fraction #NGS counts mimetic peptide / total count selection (Scribble PDZ1 [1]): 0.8115
Mean fraction #NGS counts mimetic peptide / total count selection (DLG1 PDZ2): 0.0007019
Mean fraction #NGS counts mimetic peptide / total count selection (Scribble PDZ2; mean over selections): 0.1922
Mean fraction #NGS counts mimetic peptide / total count selection (Scribble PDZ3): 0.4954
Mean fraction #NGS counts mimetic peptide / total count selection (DLG1 PDZ1): 0.002709

Substance: RPYRRESEI
Mean fraction #NGS counts mimetic peptide / total count selection (DLG1 PDZ2): 0
Mean fraction #NGS counts wt peptide / total counts selection (DLG1 PDZ2): 3.461e-5
Mean fraction #NGS counts wt peptide / total counts selection (Scribble PDZ3): 9.302e-5
Mean fraction #NGS counts wt peptide / total counts selection (DLG1 PDZ3): 2.154e-5

Substance: RATSPGSGL
Mean fraction #NGS counts wt peptide / total counts selection (DLG1 PDZ3): 0.001731
